Drawing on the METLIN SMRT retention time set (Domingo-Almenara et al. 2019), this text covers RP-LC retention time for 78 compounds.

The nature of the data set: gradient 5% acetonitrile 3 min, to 50% in 2 min, to 85% in 15 min, held 3 min, 100 µL/min. The settings on record: column: Zorbax Extend-C18 2.1 x 50 mm; eluents: water / acetonitrile, 0.1% formic acid. The essentials: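 Using water and acetonitrile that each contained 0.1% formic acid, mixtures of ~100 pure standards were separated at 100 μL/min on a Zorbax Extend-C18 column (2.1 × 50 mm, 1.8 μm). The HPLC fed a quadrupole time-of-flight mass spectrometer working in positive and negative ionization mode, with dead and dwell volumes of 40 μL and 900 μL. Data were acquired over 3 months. Retention time was read from computationally picked adduct peaks after manual inspection of each.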
In turn, `CC1=C(c2ccc(F)cc2)S(=O)(=O)N=C1N1CCCN(C(=O)Nc2ccccc2)CC1` gave an RP-LC retention time of 806 s.

Compound `Cc1ccc2c(C(=O)Nc3ccc(N4CCOCC4)cc3)cc(NC(=O)C(C)C)cc2n1` registered an RP-LC retention time of 618 s.

For `CC1CCN(S(=O)(=O)c2ccc(-c3nnc(C(=O)N4CCC5(CC4)OCCO5)o3)cc2)CC1`, the RP-LC retention time worked out at 952 s. In the case of `CC1=NS(=O)(=O)N(Cc2ccccc2)C=C1C(=O)OCc1noc(C2CCCCC2)n1` it was 1110 s; in that of `O=C(N[C@H]1C[C@@H]2C[C@H]1N(S(=O)(=O)c1cc(F)cc(F)c1)C2)c1ccccc1`, 870 s.

Compound `Cc1ccc2oc(-c3nnc(C(=O)NCc4ccc(C)o4)o3)c(C)c2c1` showed an RP-LC retention time of 1100 s. As for `CN[C@@H]1C[C@@H](c2ccc(Cl)c(Cl)c2)c2ccccc21`, the RP-LC retention time was 824 s.

For the compound `Cc1ccccc1Oc1nccn2c(=O)n(CC(=O)Nc3cc(F)ccc3F)nc12`, the RP-LC retention time was determined as 908 s. In the case of `CCc1ccc(CN2C(=O)c3ccccc3C2C(=O)NCCCOC)cc1` (stereo not drawn), the RP-LC retention time was 819 s. For `CCc1ccc(C2=C(C)C(N3CCC(NC(=O)NC(C)C)CC3)=NS2(=O)=O)cc1`, the RP-LC retention time was found to be 596 s. `CCOC(=O)c1ccc(NC(=O)COc2cccc3ccc(N4CCOCC4)nc23)cc1` showed an RP-LC retention time of 654 s. In turn, `C=CCn1c(SCC(=O)OCC)nnc1-c1ccc([N+](=O)[O-])cc1` gave an RP-LC retention time of 743 s. Turning to `COC(=O)c1cc2c(=O)n(CCN3CCOCC3)ccc2nc1C`, the RP-LC retention time turned out to be 560 s.

As to `Cc1ccc(Nc2c(-c3c(F)cccc3Cl)nc3ccc(Br)cn23)cc1`, the RP-LC retention time is 985 s. `C=CCc1cc(OC)c(O)c(C(=O)NCCO)c1` returned an RP-LC retention time of 735 s. Then `COC(=O)c1cc(S(=O)(=O)N2CCCC2C(=O)N2CCc3ccccc32)cn1C` (stereo not drawn), with 848 s. In the case of `CC(C)NC(=O)NCc1ccc2c(c1)N(C(=O)c1ccccc1)C(C)C2` (stereo not drawn) it was 778 s; in that of `COC1CN(c2cccc(F)c2)C12CCN(S(=O)(=O)c1cccc3cccnc13)CC2` (stereo not drawn), 1110 s. `CCCNC(=O)C1CCCN(c2ccc(SCC(=O)NCc3ccccc3)nn2)C1` (stereo not drawn) yielded an RP-LC retention time of 648 s. The compound `COc1ccc(NC(=O)Cn2c(C)cc(-c3nnc(C4CCC4)o3)c2C)cc1OC` yielded an RP-LC retention time of 796 s. In the case of `CCC(CC)C(=O)Nc1ccc2nc(N3CCN(CC)CC3)cc(C)c2c1` it was 593 s. In the case of `CC1CCCN(CCCNC(=O)CC2CCN(C(=O)C3CCCCC3)CC2)C1` (stereo not drawn) it was 604 s. `CCCNC(=O)N1CCCN(C2=NS(=O)(=O)C(c3ccc(F)cc3)=C2C)CC1`: the RP-LC retention time is 861 s. With `CC(=O)N1c2ccc(S(=O)(=O)N3CCCCCC3)cc2CC1C(=O)NC1CCCCCC1` (stereo not drawn), the RP-LC retention time is 959 s.

`CCc1cc(=O)n(CC(=O)NCc2ccc(F)cc2)c(N2CCOCC2)n1` registered an RP-LC retention time of 717 s. For `CNC(=O)c1cn(-c2ccc(SCC(=O)NCc3ccc4c(c3)OCO4)nn2)cn1`, the RP-LC retention time was determined as 642 s. In the case of `CCOC(=O)c1ccc2nc(C(F)(F)F)nc(NCCc3ccc(OC)cc3)c2c1` it was 1240 s; in that of `Cc1cccc(N2CCN(Cc3nc4nc(C)cc(N5CCCC5)n4n3)CC2)c1`, 632 s.

For `Cc1ccc(Cl)cc1NC(=O)CN(C)S(=O)(=O)c1c[nH]c(C(=O)N2CCCC2)c1`, the RP-LC retention time amounted to 818 s.

In turn, `Cc1cccc(-n2c(=O)c3c(cc(C)n3C)n(CC(=O)Nc3ccccc3Cl)c2=O)c1` showed an RP-LC retention time of 842 s.

Compound `COc1ccccc1N1CCN(c2cc(SCC(=O)Nc3cccc(C)c3C)ncn2)CC1` showed an RP-LC retention time of 1030 s.

Consider `CCCN1CCN(C(=O)C2Cc3cc(S(=O)(=O)N4CCCCC4)ccc3N2C(C)=O)CC1` (stereo not drawn), for which the RP-LC retention time was 630 s.

Take `O=c1ccc(-c2nc(-c3ccncc3)no2)nn1Cc1cccc(Br)c1`: the RP-LC retention time is 919 s. Compound `CCn1nccc1C(=O)NCCn1c(=O)n(Cc2cccc(C)c2)c2cccnc21` gave an RP-LC retention time of 784 s. The compound `COc1cccc(-c2nnc(Cc3nc(-c4ccc(F)cc4)no3)o2)c1` had an RP-LC retention time of 1020 s. In the case of `O=C(Nc1ccc(Br)cc1)C1CCCN(c2ncc(-c3ccc(F)cc3)cn2)C1` (stereo not drawn) it was 1240 s; in that of `Cc1ccc(NC(=O)CN2CCc3[nH]c4c(C)c(C)ccc4c(=O)c3C2)cc1`, 626 s; in that of `O=C(Nc1ccc(F)cc1F)C1CCCN(S(=O)(=O)Cc2ccc(F)cc2)C1` (stereo not drawn), 976 s. `COc1ccc(CNC(=O)C2c3ccccc3CC(=O)N2C)cc1` (stereo not drawn): the RP-LC retention time was 711 s. Consider `O=C(Nc1ccccc1OC(F)F)c1ccc(S(=O)(=O)N2CCOCC2)cc1`, for which the RP-LC retention time is 841 s. As to `Cc1ccc(CNC(=O)C2(C)CCCN(C(=O)Nc3ccccc3Br)C2)cc1` (stereo not drawn), the RP-LC retention time was 1020 s. `COc1ccc(-c2nnc(COc3cccc(NC(=O)C4CCC4)c3)o2)cc1` registered an RP-LC retention time of 901 s. In turn, `N#Cc1ccc(N2CCN(C(=O)COc3ccc4[nH]cc(CCN)c4c3)CC2)cc1` displayed an RP-LC retention time of 684 s. `Cc1c(Cl)cccc1NC(=O)c1cnc(-c2ccccc2)nc1-c1ccncc1` displayed an RP-LC retention time of 954 s.

In turn, `O=C(NCc1ccccc1)c1c(O)c2cccnc2n(-c2ccccc2)c1=O` returned an RP-LC retention time of 1160 s. The compound `COc1ccc(Cl)cc1S(=O)(=O)N1CCC(C(=O)NCCc2csc(C)n2)CC1` had an RP-LC retention time of 732 s. Take `CC(C)(C)Sc1ccc2nn(CC(=O)Nc3ccccc3C(F)(F)F)c(=O)n2n1`: the RP-LC retention time worked out at 816 s.

The compound `Cc1ccc(CNC(=O)C2(C)CN(S(C)(=O)=O)CC(=O)N2Cc2ccc(C)cc2)cc1` (stereo not drawn) returned an RP-LC retention time of 899 s.

Compound `CC1(C)CNc2cc(NC(=O)c3cccnc3NCc3ccncc3)ccc21` gave an RP-LC retention time of 603 s. On to `Cc1ccc(Nc2c(-c3ccc(N(C)C)cc3)nc3cccc(C)n23)cc1`, for which the RP-LC retention time worked out at 816 s. For `CCN1CCN(c2ccc(NC(C)=O)cn2)C1=O`, the RP-LC retention time is 567 s. Compound `CN(Cc1ccccc1)C(=O)c1cc2c(n1C)CCN(Cc1cccc(F)c1)C2` had an RP-LC retention time of 681 s. In the case of `COCCCNC(=O)CCc1c(-c2ccc(Cl)cc2)nc2ccccn12` it was 607 s. Consider `COc1ccc(NS(=O)(=O)c2cc3c(s2)CCN(C(=O)C2CC2)C3)cc1OC`, for which the RP-LC retention time stood at 734 s. In the case of `O=c1c2cc(-c3ccc4c(c3)OCO4)nn2ccn1Cc1nc(-c2ccc(F)c(Cl)c2)no1` it was 805 s. Take `COc1cccc(-n2cc(C(=O)OCC(=O)OC(C)C)c3ccccc3c2=O)c1`: the RP-LC retention time is 1060 s. `CCN1CCN(c2cc(C)c3cc(NC(=S)NCc4cccs4)ccc3n2)CC1` showed an RP-LC retention time of 584 s.

The compound `CCN1C(=O)COc2ccc(-c3noc(-c4cccc(OC)c4)n3)cc21` returned an RP-LC retention time of 1130 s. With `CCc1ccc(C(=O)N2CCc3[nH]nc(C(=O)N(C)C)c3C2)cc1`, the RP-LC retention time is 659 s.

`OC(COCc1ccc(Cl)cc1)CN1CCN(c2ccccn2)CC1` (stereo not drawn) returned an RP-LC retention time of 567 s. The compound `Cc1ccc(Nc2c(-c3ccc(C(=O)O)cc3)nc3cnccn23)c(Br)c1` displayed an RP-LC retention time of 1080 s. In turn, `COc1ccc(N2CCN(C(=O)C3CCCN(c4nccc5sc(C)cc45)C3)CC2)cc1` (stereo not drawn) gave an RP-LC retention time of 676 s. Consider `O=C(Nc1nccs1)C1CCN(C(=O)c2ccc([N+](=O)[O-])o2)CC1`, for which the RP-LC retention time turned out to be 658 s. Regarding `Fc1ccc(-c2noc(-c3ccc(N4CCCC4)nc3)n2)cc1`, the RP-LC retention time stood at 1040 s. With `CCCOc1ccc(-c2nc(N3CCCCCC3)c3ccccc3n2)cc1`, the RP-LC retention time was determined as 971 s. Consider `O=C(NCc1ccncc1)C1CN(S(=O)(=O)C2CC2)CC12CCCCC2` (stereo not drawn), for which the RP-LC retention time came to 598 s. Then `O=c1c2cc(-c3ccccc3)nn2ccn1Cc1noc(CN2CCCC2)n1`, with 646 s.

`Cc1ccccc1-n1c(Cn2nc(-c3cccc(O)c3)c3c(N)ncnc32)nc2cccc(C)c2c1=O` returned an RP-LC retention time of 778 s. Then `O=C([C@@H]1C[C@H](F)CN1C(=O)c1ccoc1)N1CCCCC1`, with 576 s; and `Cc1cccn2cc(-c3cccc(NS(=O)(=O)c4ccc(C(C)(C)C)cc4)c3)nc12`, with 792 s; and `Cc1ccc(C)c(NS(=O)(=O)c2cc3n(c2)CCN(C(C)C)C3=O)c1`, with 794 s. As to `COc1ccc(-c2noc(Cn3ccnc3C)n2)cc1OC`, the RP-LC retention time was found to be 589 s. `O=C(CC1CCCCN1S(=O)(=O)c1ccccc1)Nc1cc(F)ccc1F` (stereo not drawn) returned an RP-LC retention time of 887 s.

Turning to `CCCNC(=O)N(C)Cc1cccnc1OCC`, the RP-LC retention time worked out at 680 s.

In the case of `O=C(NCc1ccc(F)cc1Cl)C1=C2CCCN2c2ccccc2S1(=O)=O`, the RP-LC retention time is 913 s. Turning to `CCOC(=O)Cc1ccc(NC(=O)N2CCCn3nc(-c4cccs4)cc3C2)cc1`, the RP-LC retention time was 849 s. `O=C(C1CC(=O)N(c2n[nH]c3cccc(F)c23)C1)N1CCN(Cc2ccccc2)CC1` (stereo not drawn) displayed an RP-LC retention time of 598 s. `Cc1ccnc(N2CCCC(C(=O)NCCN(CCc3ccccc3)Cc3ccco3)C2)n1` (stereo not drawn) returned an RP-LC retention time of 671 s.
